Legend:
Test in all cases: KINOMEscan competition binding
Conditions in all cases: compound 10.0 µM
[1] = target: STK32B (human) (UniProt Q9NY57)
[2] = target: EPHA5 (human) (UniProt P54756)
[3] = target: MKNK2 (human) (UniProt Q9HBH9)
[4] = target: TYK2 JH2 pseudokinase (human) (UniProt P29597)
[5] = target: SRMS (human) (UniProt Q9H3Y6)
[6] = target: FGFR1 (human) (UniProt P11362)
[7] = target: EIF2AK2 (human) (UniProt P19525)
[8] = target: NTRK3 (human) (UniProt Q16288)
[9] = target: TYRO3 (human) (UniProt Q06418)
[10] = target: AXL (human) (UniProt P30530)
[11] = target: AURKC (human) (UniProt Q9UQB9)
[12] = target: MST4 (human) (UniProt Q9P289)
[13] = target: JAK1 JH1 catalytic (human) (UniProt P23458)
[14] = target: PKN2 (human) (UniProt Q16513)
[15] = target: PRKCD (human) (UniProt Q05655)
[16] = target: MAP4K3 (human) (UniProt Q8IVH8)
[17] = target: ACVR1B (human) (UniProt P36896)
[18] = target: CDC2L2 (human) (UniProt Q9UQ88)
[19] = test system: FLT3 (human), P36888 [K663Q]
[20] = target: ACVRL1 (human) (UniProt P37023)
[21] = target: CDK16 (human) (UniProt Q00536)
[22] = target: NUAK2 (human) (UniProt Q9H093)
[23] = target: ULK2 (human) (UniProt Q8IYT8)
[24] = target: MAP3K10 (human) (UniProt Q02779)
[25] = target: TGFBR2 (human) (UniProt P37173)
[26] = target: AURKB (human) (UniProt Q96GD4)
[27] = target: ANKK1 (human) (UniProt Q8NFD2)
[28] = target: MARK1 (human) (UniProt Q9P0L2)
[29] = target: PIK3CG (human) (UniProt P48736)
[30] = test system: EGFR (human), P00533 [P753S; 747-752 del]
[31] = target: TAOK1 (human) (UniProt Q7L7X3)
[32] = target: FLT3 (human) (UniProt P36888)
[33] = target: SRPK3 (human) (UniProt Q9UPE1)
[34] = target: TESK1 (human) (UniProt Q15569)
[35] = target: IKBKE (human) (UniProt Q14164)
[36] = target: BRSK2 (human) (UniProt Q8IWQ3)
[37] = target: PTK2 (human) (UniProt Q05397)
[38] = target: FGFR4 (human) (UniProt P22455)
[39] = target: TYK2 JH1 catalytic (human) (UniProt P29597)
[40] = target: MINK1 (human) (UniProt Q8N4C8)
[41] = target: NEK7 (human) (UniProt Q8TDX7)
[42] = target: PRKCE (human) (UniProt Q02156)

Chain of SRPK3 (human) (Q9UPE1 whole entry, looked up): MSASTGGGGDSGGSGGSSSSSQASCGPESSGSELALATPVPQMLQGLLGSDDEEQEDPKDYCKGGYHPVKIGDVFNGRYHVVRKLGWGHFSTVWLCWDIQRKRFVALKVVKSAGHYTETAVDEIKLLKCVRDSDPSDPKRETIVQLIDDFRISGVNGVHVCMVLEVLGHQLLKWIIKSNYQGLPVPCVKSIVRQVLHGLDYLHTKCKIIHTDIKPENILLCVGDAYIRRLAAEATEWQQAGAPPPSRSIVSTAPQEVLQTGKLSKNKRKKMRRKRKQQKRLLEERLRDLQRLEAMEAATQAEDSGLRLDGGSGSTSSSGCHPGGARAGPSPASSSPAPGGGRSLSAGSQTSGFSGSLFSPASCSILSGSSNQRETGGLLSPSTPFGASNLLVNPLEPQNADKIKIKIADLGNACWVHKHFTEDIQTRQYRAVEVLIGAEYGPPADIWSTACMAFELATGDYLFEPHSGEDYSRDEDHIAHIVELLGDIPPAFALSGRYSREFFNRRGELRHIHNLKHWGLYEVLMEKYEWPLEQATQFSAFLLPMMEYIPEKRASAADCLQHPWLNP
Chain of TGFBR2 (human) (P37173 whole entry, looked up): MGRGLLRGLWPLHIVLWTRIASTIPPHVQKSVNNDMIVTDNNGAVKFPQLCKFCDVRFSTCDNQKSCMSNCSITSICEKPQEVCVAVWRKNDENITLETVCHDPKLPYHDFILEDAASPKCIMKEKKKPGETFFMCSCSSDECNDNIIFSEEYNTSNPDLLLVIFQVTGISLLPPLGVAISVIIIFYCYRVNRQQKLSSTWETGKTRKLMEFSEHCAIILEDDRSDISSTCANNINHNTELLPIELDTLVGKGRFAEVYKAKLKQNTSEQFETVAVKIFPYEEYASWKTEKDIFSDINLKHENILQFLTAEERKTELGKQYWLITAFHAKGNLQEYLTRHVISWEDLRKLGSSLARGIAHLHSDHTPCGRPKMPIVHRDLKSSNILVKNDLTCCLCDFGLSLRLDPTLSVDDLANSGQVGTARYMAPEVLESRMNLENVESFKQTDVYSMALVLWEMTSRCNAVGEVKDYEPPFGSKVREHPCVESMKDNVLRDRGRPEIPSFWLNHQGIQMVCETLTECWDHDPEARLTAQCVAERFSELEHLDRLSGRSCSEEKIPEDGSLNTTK
Chain of PRKCD (human) (Q05655 whole entry, looked up): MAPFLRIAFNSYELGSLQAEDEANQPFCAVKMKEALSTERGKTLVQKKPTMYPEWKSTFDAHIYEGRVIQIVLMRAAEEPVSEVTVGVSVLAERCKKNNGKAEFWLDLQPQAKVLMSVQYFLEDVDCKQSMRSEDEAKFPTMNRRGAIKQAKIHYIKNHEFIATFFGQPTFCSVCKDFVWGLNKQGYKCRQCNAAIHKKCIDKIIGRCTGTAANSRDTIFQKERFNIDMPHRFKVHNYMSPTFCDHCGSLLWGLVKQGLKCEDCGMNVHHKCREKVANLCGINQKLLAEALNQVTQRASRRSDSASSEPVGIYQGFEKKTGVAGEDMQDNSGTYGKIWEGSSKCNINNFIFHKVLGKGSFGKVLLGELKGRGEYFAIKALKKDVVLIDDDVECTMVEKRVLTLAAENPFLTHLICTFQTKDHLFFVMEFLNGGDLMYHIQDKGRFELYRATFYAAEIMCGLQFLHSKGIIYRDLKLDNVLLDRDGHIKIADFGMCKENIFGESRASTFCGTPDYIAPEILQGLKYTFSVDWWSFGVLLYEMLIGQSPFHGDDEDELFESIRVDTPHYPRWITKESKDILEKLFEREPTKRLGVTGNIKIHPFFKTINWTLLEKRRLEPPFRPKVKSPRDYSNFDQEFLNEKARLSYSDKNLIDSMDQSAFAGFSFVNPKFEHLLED
Chain of CDK16 (human) (Q00536 whole entry, looked up): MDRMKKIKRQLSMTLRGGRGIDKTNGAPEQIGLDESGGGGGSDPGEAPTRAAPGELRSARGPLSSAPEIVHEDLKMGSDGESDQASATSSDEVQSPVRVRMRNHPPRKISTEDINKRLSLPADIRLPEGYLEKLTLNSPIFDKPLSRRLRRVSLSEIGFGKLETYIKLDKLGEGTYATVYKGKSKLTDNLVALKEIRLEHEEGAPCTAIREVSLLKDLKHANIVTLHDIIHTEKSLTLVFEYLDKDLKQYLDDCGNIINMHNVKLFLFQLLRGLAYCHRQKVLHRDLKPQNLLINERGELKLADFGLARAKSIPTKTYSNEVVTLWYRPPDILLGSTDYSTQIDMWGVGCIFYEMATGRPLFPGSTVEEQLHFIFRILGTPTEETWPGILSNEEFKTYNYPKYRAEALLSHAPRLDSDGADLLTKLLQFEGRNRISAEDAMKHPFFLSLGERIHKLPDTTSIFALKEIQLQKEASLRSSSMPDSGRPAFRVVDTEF
Chain of MINK1 (human) (Q8N4C8 whole entry, looked up): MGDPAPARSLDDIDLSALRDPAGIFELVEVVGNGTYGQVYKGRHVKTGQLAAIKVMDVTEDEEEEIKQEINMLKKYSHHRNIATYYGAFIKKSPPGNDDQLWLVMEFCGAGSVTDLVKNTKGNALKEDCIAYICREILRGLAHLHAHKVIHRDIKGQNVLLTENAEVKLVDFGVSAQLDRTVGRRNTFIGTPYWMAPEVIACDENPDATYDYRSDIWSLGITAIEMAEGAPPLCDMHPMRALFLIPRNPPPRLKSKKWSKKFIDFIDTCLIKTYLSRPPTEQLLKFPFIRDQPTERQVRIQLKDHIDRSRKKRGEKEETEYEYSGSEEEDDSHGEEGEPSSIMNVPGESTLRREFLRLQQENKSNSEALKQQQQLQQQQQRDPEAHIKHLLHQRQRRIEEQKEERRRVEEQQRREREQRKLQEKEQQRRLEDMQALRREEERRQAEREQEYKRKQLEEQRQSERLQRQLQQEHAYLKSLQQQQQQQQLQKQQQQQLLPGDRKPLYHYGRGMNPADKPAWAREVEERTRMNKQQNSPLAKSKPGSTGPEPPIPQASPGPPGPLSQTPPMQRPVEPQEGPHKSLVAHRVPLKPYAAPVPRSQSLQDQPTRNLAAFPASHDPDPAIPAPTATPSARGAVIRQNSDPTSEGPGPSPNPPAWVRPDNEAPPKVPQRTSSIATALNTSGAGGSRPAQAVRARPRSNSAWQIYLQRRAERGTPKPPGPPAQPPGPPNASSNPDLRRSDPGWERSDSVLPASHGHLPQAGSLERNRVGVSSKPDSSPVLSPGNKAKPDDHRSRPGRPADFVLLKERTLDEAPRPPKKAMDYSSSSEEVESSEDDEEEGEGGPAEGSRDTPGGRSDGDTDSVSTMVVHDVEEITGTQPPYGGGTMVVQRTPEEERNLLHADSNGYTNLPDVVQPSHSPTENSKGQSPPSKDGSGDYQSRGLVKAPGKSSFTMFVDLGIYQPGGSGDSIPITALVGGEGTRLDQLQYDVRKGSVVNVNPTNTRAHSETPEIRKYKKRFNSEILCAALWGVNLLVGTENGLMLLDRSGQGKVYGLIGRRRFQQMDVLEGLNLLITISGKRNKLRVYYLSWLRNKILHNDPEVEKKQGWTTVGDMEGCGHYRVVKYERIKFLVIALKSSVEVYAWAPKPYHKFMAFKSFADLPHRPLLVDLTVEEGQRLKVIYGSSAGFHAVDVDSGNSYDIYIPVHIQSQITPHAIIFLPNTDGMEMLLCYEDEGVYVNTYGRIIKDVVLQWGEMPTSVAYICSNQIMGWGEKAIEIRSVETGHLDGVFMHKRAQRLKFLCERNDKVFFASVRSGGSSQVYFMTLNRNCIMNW
Chain of NTRK3 (human) (Q16288 whole entry, looked up): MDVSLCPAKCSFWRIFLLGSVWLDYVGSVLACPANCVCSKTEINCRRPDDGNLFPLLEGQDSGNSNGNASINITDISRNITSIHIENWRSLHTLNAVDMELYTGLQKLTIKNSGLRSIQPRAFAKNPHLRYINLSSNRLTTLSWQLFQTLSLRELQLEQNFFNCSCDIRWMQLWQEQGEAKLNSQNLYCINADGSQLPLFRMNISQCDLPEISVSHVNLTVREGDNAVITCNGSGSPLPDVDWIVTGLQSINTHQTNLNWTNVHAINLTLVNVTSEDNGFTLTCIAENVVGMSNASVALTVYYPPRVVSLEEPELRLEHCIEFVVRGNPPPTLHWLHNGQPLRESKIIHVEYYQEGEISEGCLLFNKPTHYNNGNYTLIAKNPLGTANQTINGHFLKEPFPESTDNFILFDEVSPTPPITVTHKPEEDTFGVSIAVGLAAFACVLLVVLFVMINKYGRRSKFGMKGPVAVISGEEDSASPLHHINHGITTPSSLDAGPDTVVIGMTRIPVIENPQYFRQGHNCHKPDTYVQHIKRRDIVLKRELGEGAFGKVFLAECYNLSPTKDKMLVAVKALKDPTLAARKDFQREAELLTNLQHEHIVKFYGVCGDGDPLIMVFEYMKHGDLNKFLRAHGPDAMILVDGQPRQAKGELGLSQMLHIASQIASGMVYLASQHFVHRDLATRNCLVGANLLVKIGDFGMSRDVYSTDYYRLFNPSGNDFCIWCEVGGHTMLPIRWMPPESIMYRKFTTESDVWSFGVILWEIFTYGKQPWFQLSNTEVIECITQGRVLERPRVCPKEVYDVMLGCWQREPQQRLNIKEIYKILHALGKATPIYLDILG
Chain of NEK7 (human) (Q8TDX7 whole entry, looked up): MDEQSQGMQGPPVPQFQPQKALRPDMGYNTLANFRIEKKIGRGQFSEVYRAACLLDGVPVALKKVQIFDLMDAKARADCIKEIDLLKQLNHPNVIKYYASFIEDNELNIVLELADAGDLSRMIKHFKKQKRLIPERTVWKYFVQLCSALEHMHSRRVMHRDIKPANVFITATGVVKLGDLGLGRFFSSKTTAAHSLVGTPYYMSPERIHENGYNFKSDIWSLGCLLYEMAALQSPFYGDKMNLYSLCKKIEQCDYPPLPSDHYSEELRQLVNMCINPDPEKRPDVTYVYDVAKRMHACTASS

## CCN1CCN(Cc2ccc(NC(=O)c3ccc(C)c(/C=C/c4cnc(Nc5cc(N6CCNCC6)nc(C)n5)cn4)c3)cc2C(F)(F)F)CC1
[1]
  kinase still bound, per cent of control: 100%
[2]
  kinase still bound, per cent of control: 20%
[3]
  kinase still bound, per cent of control: 18%
[4]
  kinase still bound, per cent of control: 100%
[5]
  kinase still bound, per cent of control: 8.2%
[6]
  kinase still bound, per cent of control: 1.6%
[7]
  kinase still bound, per cent of control: 80%
[8]
  kinase still bound, per cent of control: 1%
[9]
  kinase still bound, per cent of control: 37%
[10]
  kinase still bound, per cent of control: 26%
[11]
  kinase still bound, per cent of control: 45%
[12]
  kinase still bound, per cent of control: 4.6%
[13]
  kinase still bound, per cent of control: 80%
[14]
  kinase still bound, per cent of control: 100%
[15]
  kinase still bound, per cent of control: 100%
[16]
  kinase still bound, per cent of control: 0.9%
[17]
  kinase still bound, per cent of control: 96%
[18]
  kinase still bound, per cent of control: 69%
[19]
  kinase still bound, per cent of control: 0.15%
[20]
  kinase still bound, per cent of control: 79%
[21]
  kinase still bound, per cent of control: 60%
[22]
  kinase still bound, per cent of control: 81%
[23]
  kinase still bound, per cent of control: 32%
[24]
  kinase still bound, per cent of control: 30%
[25]
  kinase still bound, per cent of control: 54%
[26]
  kinase still bound, per cent of control: 100%
[27]
  kinase still bound, per cent of control: 9.6%
[28]
  kinase still bound, per cent of control: 100%
[29]
  kinase still bound, per cent of control: 100%
[30]
  kinase still bound, per cent of control: 0.2%
[31]
  kinase still bound, per cent of control: 7%
[32]
  kinase still bound, per cent of control: 3.8%
[33]
  kinase still bound, per cent of control: 82%
[34]
  kinase still bound, per cent of control: 23%
[35]
  kinase still bound, per cent of control: 90%
[36]
  kinase still bound, per cent of control: 100%
[37]
  kinase still bound, per cent of control: 100%
[38]
  kinase still bound, per cent of control: 34%
[39]
  kinase still bound, per cent of control: 29%
[40]
  kinase still bound, per cent of control: 4.3%
[41]
  kinase still bound, per cent of control: 100%
[42]
  kinase still bound, per cent of control: 68%

From the kinase profiling compilation of Christmann-Franck et al. (2016)
